Data from patent US20110318470A1, “Method For Improving Plant Health” (priority 2008, published 2011).

Tested on: Wheat plants (Trificum aestivum cv. Monopol)
Assay: Growth-promoting effect on wheat plants after foliar treatment
Type: in vivo
Conditions: for Shoot-DW / Shoot-FW: 750 l/ha, greenhouse, mean of six pots with ten plants; for Shoot-DW / Shoot-FW / Shoot-DW % of control / Shoot-FW % of control: harvest after 18 days; for Shoot-DW % of control / Shoot-FW % of control: control = 100.0; for plant health (higher yields and increased plant vigor based on fresh- and dry weights) / tillering: wheat, foliar treatment, 15 and 7.5 g ai/ha
Description: Wheat plants (Trificum aestivum cv. Monopol) were grown in soil with ten plants per pot (13 cm diameter) under greenhouse conditions. Plants at the 2nd leaf stage were sprayed with aqueous solutions of formulated compounds: • Compound 1=4-Fluoro-N-[2-(2-fluoro-benzoylamino)-1-methylcarbamoyl-ethyl]-2-trifluoromethyl-benzamide • Compound 2=4-Fluoro-N-[2-(3-fluoro-2-methyl-phenyl)-2-hydroxy-1-methylcarbamoyl-ethyl]-2-trifluoromethyl-benzamide The compounds were applied at two different dose rates (15 and 7.5 g ai/ha) and the spray volume was 750 l/ha. Six replicate pots with ten plants each were used per treatment. After 18 days plants were harvested and growth parameters were determined. The recorded parameters were fresh weight (FW) and dry weight (DW). Mean values of results, standard deviation (SD) and percentage to control were calculated.

[1] = 7.5 g ai/ha foliar spray at 2nd leaf stage
[2] = 15 g ai/ha foliar spray at 2nd leaf stage

Row | Compound | Shoot-DW [1] [g] | Shoot-FW [1] [g] | Shoot-DW % of control (7.5 g ai/ha foliar spray) | Shoot-FW % of control (7.5 g ai/ha foliar spray) | Shoot-DW [2] [g] | Shoot-FW [2] [g] | Shoot-DW % of control (15 g ai/ha foliar spray) | Shoot-FW % of control (15 g ai/ha foliar spray) | plant health (higher yields and increased plant vigor based on fresh- and dry weights) | tillering
1 | CNC(=O)C(CNC(=O)c1ccccc1F)NC(=O)c1ccc(F)cc1C(F)(F)F (centres unmarked) [Compound 1, 4-Fluoro-N-[2-(2-fluoro-benzoylamino)-1-methylcarbamoyl-ethyl]-2-trifluoromethyl-benzamide] | 3.8 | 40.6 | 134.9 % of control | 132.7 % of control | 3.7 | 38.8 | 131.0 % of control | 126.9 % of control | strongly increase the plant health | increase in tillering
2 | CNC(=O)C(NC(=O)c1ccc(F)cc1C(F)(F)F)C(O)c1cccc(F)c1C (centres unmarked) [Compound 2, 4-Fluoro-N-[2-(3-fluoro-2-methyl-phenyl)-2-hydroxy-1-methylcarbamoyl-ethyl]-2-trifluoromethyl-benzamide] | 3.9 | 40.2 | 138.6 % of control | 131.4 % of control | 3.9 | 40.6 | 138.2 % of control | 132.8 % of control | strongly increase the plant health | increase in tillering
